What follows are compounds tested against DGKα (Homo sapiens (Human), UniProt P23743) (assay: Human DGKα kinase activity inhibition assay (ADP-Glo)). Conditions: recombinant full-length human DGKα, 55 μM ATP, 7 μM 1,2-dioleoyl-sn-glycerol, read-out: IC50 values of examples in in vitro human DGKa kinase activity inhibition assays.
Chain of DGKα (P23743 other isoform, or with tags, fused parts or gaps): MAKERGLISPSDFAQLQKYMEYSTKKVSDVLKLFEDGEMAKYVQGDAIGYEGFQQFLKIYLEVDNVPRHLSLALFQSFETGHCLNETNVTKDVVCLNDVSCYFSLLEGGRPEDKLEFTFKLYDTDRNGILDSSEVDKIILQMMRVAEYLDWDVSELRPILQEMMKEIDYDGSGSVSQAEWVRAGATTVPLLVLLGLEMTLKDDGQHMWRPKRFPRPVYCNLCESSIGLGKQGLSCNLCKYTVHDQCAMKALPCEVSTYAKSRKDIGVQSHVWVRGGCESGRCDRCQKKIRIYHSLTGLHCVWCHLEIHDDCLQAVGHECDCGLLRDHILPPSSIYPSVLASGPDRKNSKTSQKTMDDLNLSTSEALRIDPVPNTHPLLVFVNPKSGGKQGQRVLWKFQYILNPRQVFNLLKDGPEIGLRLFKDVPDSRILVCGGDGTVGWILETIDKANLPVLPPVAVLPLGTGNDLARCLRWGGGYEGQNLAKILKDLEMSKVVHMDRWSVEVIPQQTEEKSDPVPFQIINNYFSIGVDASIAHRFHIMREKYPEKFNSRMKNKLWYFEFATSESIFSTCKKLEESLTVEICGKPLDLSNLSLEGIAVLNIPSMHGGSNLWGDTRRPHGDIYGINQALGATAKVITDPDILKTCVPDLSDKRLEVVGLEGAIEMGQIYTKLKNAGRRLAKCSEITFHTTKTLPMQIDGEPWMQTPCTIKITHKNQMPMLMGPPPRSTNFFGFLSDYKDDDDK
Type: biochemical
How it was run: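 Recombinant full-length human DGKα (C-terminal FLAG, from insect cells) phosphorylated 1,2-dioleoyl-sn-glycerol presented in octyl-glucopyranoside micelles. ADP formed was quantified by ADP-Glo luminescence. Compounds were added from 100-fold DMSO stocks.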
In the case of COCc1ccc2c(c1)c(N1CCC(C)(c3nc4cc(C)ccc4o3)CC1)c(C#N)c(=O)n2C [Example 213, 6-(methoxymethyl)-1-methyl-4-[4-methyl-4-(5-methyl-1,3-benzoxazol-2-yl)piperidin-1-yl]-2-oxo-1,2-dihydroquinoline-3-carbonitrile], the IC50 is reported as 39 nM. With Cc1ccc2c(c1)c(N1CCC(C)(c3nc4ccccc4o3)CC1)c(C#N)c(=O)n2C [Example 214, 4-[4-(1,3-benzoxazol-2-yl)-4-methylpiperidin-1-yl]-1,6-dimethyl-2-oxo-1,2-dihydroquinoline-3-carbonitrile] the IC50 was 0.9 nM. In the case of Cn1c(=O)c(C#N)c(N2CCC(C)(c3nc4ccccc4o3)CC2)c2cc(F)ccc21 [Example 216, 4-[4-(1,3-benzoxazol-2-yl)-4-methylpiperidin-1-yl]-6-fluoro-1-methyl-2-oxo-1,2-dihydroquinoline-3-carbonitrile], the IC50 is reported as 0.4 nM. Compound Cc1ccc2oc(C3CCN(c4c(C#N)c(=O)n(C)c5ccc(F)cc45)CC3)nc2c1 [Example 217, 6-fluoro-1-methyl-4-[4-(5-methyl-1,3-benzoxazol-2-yl)piperidin-1-yl]-2-oxo-1,2-dihydroquinoline-3-carbonitrile] has an IC50 of 1 nM. Cc1ccc2c(N3CCC(C)(c4nc5ccccc5o4)CC3)c(C#N)c(=O)n(C)c2c1 [Example 218, 4-[4-(1,3-benzoxazol-2-yl)-4-methylpiperidin-1-yl]-1,7-dimethyl-2-oxo-1,2-dihydroquinoline-3-carbonitrile] was tested, and the IC50 was 0.6 nM. Work on Cc1ccc2c(N3CCC(c4nc5ccccc5o4)CC3)c(C#N)c(=O)n(C)c2c1 [Example 219, 4-[4-(1,3-benzoxazol-2-yl)piperidin-1-yl]-1,7-dimethyl-2-oxo-1,2-dihydroquinoline-3-carbonitrile] yielded an IC50 of 1.6 nM. Compound Cc1ccc2oc(C3(C)CCN(c4c(C#N)c(=O)n(C)c5cc(C)ccc45)CC3)nc2c1 [Example 220, 1,7-dimethyl-4-[4-methyl-4-(5-methyl-1,3-benzoxazol-2-yl)piperidin-1-yl]-2-oxo-1,2-dihydroquinoline-3-carbonitrile] has an IC50 of 1.7 nM. With Cc1ccc2oc(C3CCN(c4c(C#N)c(=O)n(C)c5cc(C)ccc45)CC3)nc2c1 [Example 221, 1,7-dimethyl-4-[4-(5-methyl-1,3-benzoxazol-2-yl)piperidin-1-yl]-2-oxo-1,2-dihydroquinoline-3-carbonitrile] the IC50 was 1.8 nM. Work on Cc1ccc2c(N3CCC(c4nc5ccccc5s4)CC3)c(C#N)c(=O)n(C)c2c1 [Example 222, 4-[4-(1,3-benzothiazol-2-yl)piperidin-1-yl]-1,7-dimethyl-2-oxo-1,2-dihydroquinoline-3-carbonitrile] yielded an IC50 of 5.2 nM. For CCC1(c2nc3ccccc3o2)CCN(c2c(C#N)c(=O)n(C)c3cc(Br)ccc23)CC1 [Example 223, 4-[4-(1,3-benzoxazol-2-yl)-4-ethylpiperidin-1-yl]-7-bromo-1-methyl-2-oxo-1,2-dihydroquinoline-3-carbonitrile], the IC50 was 1.2 nM. With Cn1c(=O)c(C#N)c(N2CCC(C)(c3nc4ccccc4o3)CC2)c2ccc(Cl)cc21 [Example 226, 4-[4-(1,3-benzoxazol-2-yl)-4-methylpiperidin-1-yl]-7-chloro-1-methyl-2-oxo-1,2-dihydroquinoline-3-carbonitrile] the IC50 was 1.3 nM. Work on Cn1c(=O)c(C#N)c(N2CCC(c3nc4ccccc4o3)CC2)c2ccc(Cl)cc21 [Example 227, 4-[4-(1,3-benzoxazol-2-yl)piperidin-1-yl]-7-chloro-1-methyl-2-oxo-1,2-dihydroquinoline-3-carbonitrile] yielded an IC50 of 2 nM. Cc1ccc2oc(C3(C)CCN(c4c(C#N)c(=O)n(C)c5cc(Cl)ccc45)CC3)nc2c1 [Example 228, 7-chloro-1-methyl-4-[4-methyl-4-(5-methyl-1,3-benzoxazol-2-yl)piperidin-1-yl]-2-oxo-1,2-dihydroquinoline-3-carbonitrile] gave an IC50 of 2.4 nM. Work on Cc1ccc2oc(C3CCN(c4c(C#N)c(=O)n(C)c5cc(Cl)ccc45)CC3)nc2c1 [Example 229, 7-chloro-1-methyl-4-[4-(5-methyl-1,3-benzoxazol-2-yl)piperidin-1-yl]-2-oxo-1,2-dihydroquinoline-3-carbonitrile] yielded an IC50 of 3 nM. Work on Cn1c(=O)c(C#N)c(N2CCC(C)(c3nc4ccccc4o3)CC2)c2cccc(Cl)c21 [Example 230, 4-[4-(1,3-benzoxazol-2-yl)-4-methylpiperidin-1-yl]-8-chloro-1-methyl-2-oxo-1,2-dihydroquinoline-3-carbonitrile] yielded an IC50 of 83 nM. Cc1ccc2oc(C3(C)CCN(c4c(C#N)c(=O)n(C)c5c(Cl)cccc45)CC3)nc2c1 [Example 231, 8-chloro-1-methyl-4-[4-methyl-4-(5-methyl-1,3-benzoxazol-2-yl)piperidin-1-yl]-2-oxo-1,2-dihydroquinoline-3-carbonitrile] gave an IC50 of 108 nM. Cc1ccc2oc(C3CCN(c4c(C#N)c(=O)n(C)c5c(Cl)cccc45)CC3)nc2c1 [Example 232, 8-chloro-1-methyl-4-[4-(5-methyl-1,3-benzoxazol-2-yl)piperidin-1-yl]-2-oxo-1,2-dihydroquinoline-3-carbonitrile] was tested, and the IC50 was 163 nM. Cc1ccc2oc(C3(C)CCN(c4c(C#N)c(=O)n(C)c5c(Br)cccc45)CC3)nc2c1C(F)(F)F [Example 233, 8-bromo-1-methyl-4-{4-methyl-4-[5-methyl-4-(trifluoromethyl)-1,3-benzoxazol-2-yl]piperidin-1-yl}-2-oxo-1,2-dihydroquinoline-3-carbonitrile] was tested, and the IC50 was 1270 nM. For Cc1ccc2oc([C@H]3CCN(c4c(C#N)c(=O)n(C)c5ccccc45)[C@@H](C)C3)nc2c1 [Example 234, 1-methyl-4-[(2S,4S)-2-methyl-4-(5-methyl-1,3-benzoxazol-2-yl)piperidin-1-yl]-2-oxo-1,2-dihydroquinoline-3-carbonitrile], the IC50 was 1.8 nM. In the case of Cn1c(=O)c(C#N)c(N2CCC(C)(c3nc4ccccc4o3)CC2)c2ccc(F)cc21 [Example 235, 4-[4-(1,3-benzoxazol-2-yl)-4-methylpiperidin-1-yl]-7-fluoro-1-methyl-2-oxo-1,2-dihydroquinoline-3-carbonitrile], the IC50 is reported as 2.9 nM. Compound Cn1c(=O)c(C#N)c(N2CCC(c3nc4ccccc4o3)CC2)c2ccc(F)cc21 [Example 236, 4-[4-(1,3-benzoxazol-2-yl)piperidin-1-yl]-7-fluoro-1-methyl-2-oxo-1,2-dihydroquinoline-3-carbonitrile] has an IC50 of 4.3 nM. For Cc1ccc2oc(C3(C)CCN(c4c(C#N)c(=O)n(C)c5cc(F)ccc45)CC3)nc2c1 [Example 237, 7-fluoro-1-methyl-4-[4-methyl-4-(5-methyl-1,3-benzoxazol-2-yl)piperidin-1-yl]-2-oxo-1,2-dihydroquinoline-3-carbonitrile], the IC50 was 5 nM. Work on Cc1ccc2oc(C3CCN(c4c(C#N)c(=O)n(C)c5cc(F)ccc45)CC3)nc2c1 [Example 238, 7-fluoro-1-methyl-4-[4-(5-methyl-1,3-benzoxazol-2-yl)piperidin-1-yl]-2-oxo-1,2-dihydroquinoline-3-carbonitrile] yielded an IC50 of 12 nM. Cc1ccc2oc(C3(C)CCN(c4c(C#N)c(=O)n(C)c5cc(OCC6(O)CC6)ccc45)CC3)nc2c1 [Example 239, 7-[(1-hydroxycyclopropyl)methoxy]-1-methyl-4-[4-methyl-4-(5-methyl-1,3-benzoxazol-2-yl)piperidin-1-yl]-2-oxo-1,2-dihydroquinoline-3-carbonitrile] showed an IC50 of 0.6 nM. In the case of COc1ccc2c(N3CCC(c4nc5ccccc5s4)CC3)c(C#N)c(=O)n(C)c2c1 [Example 240, 4-[4-(1,3-benzothiazol-2-yl)piperidin-1-yl]-7-methoxy-1-methyl-2-oxo-1,2-dihydroquinoline-3-carbonitrile], the IC50 is reported as 2.5 nM. In the case of Cc1ccc2oc(C3(C)CCN(c4c(C#N)c(=O)n(C)c5cc(OC6COC6)ccc45)CC3)nc2c1 [Example 241, 1-methyl-4-[4-methyl-4-(5-methyl-1,3-benzoxazol-2-yl)piperidin-1-yl]-7-[(oxetan-3-yl)oxy]-2-oxo-1,2-dihydroquinoline-3-carbonitrile], the IC50 is reported as 2.5 nM. Cc1ccc2oc(C3(C)CCN(c4c(C#N)c(=O)n(C)c5ccc(O)cc45)CC3)nc2c1 [Example 242, 6-hydroxy-1-methyl-4-[4-methyl-4-(5-methyl-1,3-benzoxazol-2-yl)piperidin-1-yl]-2-oxo-1,2-dihydroquinoline-3-carbonitrile] showed an IC50 of 2.7 nM. Work on COc1ccc2c(N3CCC(c4nc5ccccc5o4)CC3)c(C#N)c(=O)n(C)c2c1 [Example 243, 4-[4-(1,3-benzoxazol-2-yl)piperidin-1-yl]-7-methoxy-1-methyl-2-oxo-1,2-dihydroquinoline-3-carbonitrile] yielded an IC50 of 3.5 nM. Compound Cc1ccc2oc(C3(C)CCN(c4c(C#N)c(=O)n(C)c5cc(OC6CC6)ccc45)CC3)nc2c1 [Example 244, 7-(cyclopropyloxy)-1-methyl-4-[4-methyl-4-(5-methyl-1,3-benzoxazol-2-yl)piperidin-1-yl]-2-oxo-1,2-dihydroquinoline-3-carbonitrile] has an IC50 of 4.6 nM. For Cc1ccc2oc(C3(C)CCN(c4c(C#N)c(=O)n(C)c5c(C6COC6)cccc45)CC3)nc2c1 [Example 245, 1-methyl-4-[4-methyl-4-(5-methyl-1,3-benzoxazol-2-yl)piperidin-1-yl]-8-(oxetan-3-yl)-2-oxo-1,2-dihydroquinoline-3-carbonitrile], the IC50 was 5.9 nM. COc1ccc2c(c1)c(N1CCC(C)(c3nc4cc(C)ccc4o3)CC1)c(C#N)c(=O)n2C [Example 246, 6-methoxy-1-methyl-4-[4-methyl-4-(5-methyl-1,3-benzoxazol-2-yl)piperidin-1-yl]-2-oxo-1,2-dihydroquinoline-3-carbonitrile] showed an IC50 of 6.5 nM. Cc1ccc2oc(C3(C)CCN(c4c(C#N)c(=O)n(C)c5cc(OC6CCC6)ccc45)CC3)nc2c1 [Example 247, 7-(cyclobutyloxy)-1-methyl-4-[4-methyl-4-(5-methyl-1,3-benzoxazol-2-yl)piperidin-1-yl]-2-oxo-1,2-dihydroquinoline-3-carbonitrile] gave an IC50 of 6.9 nM.

From patent US11998539B2, “Substituted aminoquinolones as DGKalpha inhibitors for immune activation” (Bayer Aktiengesellschaft, priority 2019, dated 2024)
